Tests used:
Assay in all cases: relative viability (nuclei count vs DMSO), 5 days (fraction); higher = more cells survive
[1] = compound: C1CC(C1)(C(=O)O)C(=O)O.[NH2-].[NH2-].[Pt+2] [Carboplatin] + CC(=O)c1c(C)c2cnc(Nc3ccc(N4CCNCC4)cn3)nc2n(C2CCCC2)c1=O [Palbociclib] (partner 0.5 µM)
How it was run: (§1)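 Nuclei were stained with Hoechst during a one-step fixation (final 0.05% Triton X-100, 1% formaldehyde, 1 ug/ml Hoechst) carried out 5 days after dosing, then counted on 4× images. The cells, lung cancer lines in 1536-well plates, had been dosed by pin tool the day after seeding with one drug alone or a fixed anchor-drug dose plus five library-drug doses (not always all listed) in √10 steps. Relative viability is the nuclei count in treated wells divided by that in vehicle wells, and each value is the median of duplicate plates.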

GSK126 + Trametinib = compound: CC[C@H](C)N1C=C(C2=C(C=C(C=C21)C3=CN=C(C=C3)N4CCNCC4)C(=O)NCC5=C(C=C(NC5=O)C)C)C [GSK126] + CC(=O)Nc1cccc(-n2c(=O)n(C3CC3)c(=O)c3c(Nc4ccc(I)cc4F)n(C)c(=O)c(C)c32)c1 [Trametinib] (partner 0.02 µM)
How it was run: as §1

GSK126 + Alpelisib = compound: CC[C@H](C)N1C=C(C2=C(C=C(C=C21)C3=CN=C(C=C3)N4CCNCC4)C(=O)NCC5=C(C=C(NC5=O)C)C)C [GSK126] + Cc1nc(NC(=O)N2CCC[C@H]2C(N)=O)sc1-c1ccnc(C(C)(C)C(F)(F)F)c1 [Alpelisib] (partner 2 µM)
How it was run: as §1

MLN4924 + Luminespib = compound: NS(=O)(=O)OC[C@@H]1C[C@@H](n2ccc3c(N[C@H]4CCc5ccccc54)ncnc32)C[C@@H]1O [MLN4924] + CCNC(=O)c1noc(-c2cc(C(C)C)c(O)cc2O)c1-c1ccc(CN2CCOCC2)cc1 [Luminespib] (partner 0.01 µM)
How it was run: as §1

Cell Line	relative viability ([1]; first compound 0.08 µM)	relative viability ([1]; first compound 0.253 µM)	relative viability ([1]; first compound 0.8 µM)	relative viability ([1]; first compound 2.53 µM)	relative viability ([1]; first compound 8 µM)	relative viability (GSK126 + Trametinib; first compound 0.08 µM)	relative viability (GSK126 + Trametinib; first compound 0.253 µM)	relative viability (GSK126 + Trametinib; first compound 0.8 µM)	relative viability (GSK126 + Trametinib; first compound 2.53 µM)	relative viability (GSK126 + Trametinib; first compound 8 µM)	relative viability (GSK126 + Alpelisib; first compound 0.08 µM)	relative viability (GSK126 + Alpelisib; first compound 0.253 µM)	relative viability (GSK126 + Alpelisib; first compound 0.8 µM)	relative viability (GSK126 + Alpelisib; first compound 2.53 µM)	relative viability (GSK126 + Alpelisib; first compound 8 µM)	relative viability (MLN4924 + Luminespib; first compound 0.04 µM)	relative viability (MLN4924 + Luminespib; first compound 0.1265 µM)	relative viability (MLN4924 + Luminespib; first compound 0.4 µM)	relative viability (MLN4924 + Luminespib; first compound 1.265 µM)	relative viability (MLN4924 + Luminespib; first compound 4 µM)
A-427	0.585	0.509	0.542	0.484	0.488	0.845	0.762	0.712	0.757	0.795	1.12	1.07	1.05	1.16	1.06	0.465	0.245	0.263	0.178	0.216
SW 1573	0.484	0.438	0.43	0.369	0.273	0.57	0.618	0.596	0.587	0.622	0.725	0.811	0.819	0.773	0.786	0.259	0.365	0.0849	0.0812	0.0892
PC-14	0.552	0.509	0.411	0.239	0.117	0.912	0.694	0.708	0.662	0.699	0.946	0.993	0.899	0.826	0.852	0.151	0.164	0.114	0.116	0.152
LOU-NH91	0.539	0.455	0.44	0.507	0.515	0.813	0.771	0.765	0.821	0.761	0.778	0.694	0.696	0.721	0.722	0.334	0.3	0.281	0.246	0.303
BEN	0.467	0.442	0.488	0.44	0.494	1.05	0.736	1.02	1.26	0.953	1.1	0.996	1.04	1.16	0.734	0.292	0.201	0.27	0.138	0.158
NCI-H2085	0.473	0.486	0.462	0.456	0.452	0.614	0.658	0.554	0.569	0.568	1.07	0.912	1	0.906	0.995	0.422	0.407	0.534	0.375	0.311
LCLC-103H	0.538	0.469	0.543	0.431	0.444	0.71	0.708	0.647	0.64	0.725	0.953	1.02	0.927	0.992	1.03	0.947	0.92	0.724	0.217	0.166
NCI-H661	0.385	0.428	0.399	0.416	0.374	0.632	0.548	0.523	0.596	0.687	0.802	0.638	0.657	0.478	0.58	0.744	0.691	0.484	0.385	0.351
NCI-H1792	0.674	0.607	0.639	0.616	0.569	0.492	0.397	0.43	0.405	0.406	0.703	0.77	0.78	0.761	0.636	0.515	0.436	0.495	0.321	0.359
H3255	0.303	0.303	0.308	0.275	0.306	0.685	0.628	0.639	0.546	0.571	0.716	0.679	0.847	0.643	0.738	0.843	0.73	0.541	0.288	0.292
EMC-BAC-2	0.533	0.516	0.525	0.536	0.469	0.849	0.832	0.92	0.676	0.859	0.785	0.77	0.718	0.731	0.765	0.906	0.495	0.303	0.276	0.325
NCI-H1666	0.687	0.685	0.549	0.602	0.6	0.859	0.998	0.841	0.818	0.838	1	0.964	1.05	0.962	1.12	1	1.05	0.498	0.324	0.342
LCLC-97TM1	0.206	0.211	0.257	0.211	0.206	0.205	0.2	0.204	0.211	0.209	0.254		0.22	0.374	0.217	0.586	0.343	0.439	0.128	0.109
NCI-H2405	0.552	0.542	0.542	0.543	0.449	0.817	0.587	0.611	0.614	0.636	0.774	0.664	0.827	0.761	0.667	0.608	0.469	0.518	0.286	0.241
NCI-H1915	0.489	0.509	0.523	0.448	0.346	0.344	0.29	0.313	0.315	0.332	1.16	1.05	1.08	1.05	1.09	0.728	0.639	0.761	0.231	0.17
NCI-H650	0.318	0.337	0.332	0.276	0.232	1.02	0.891	0.919	0.945	0.994	1.24	1.11	1.17	1.23	0.993	0.86	0.543	0.367	0.17	0.162
HCC-44	0.994	0.975	1	0.859	0.89	1.08	1.04	1.06	1.03	1.06	0.884	0.841	0.813	0.81	0.859	0.964	0.564	0.441	0.227	0.294
NCI-H2087	0.259	0.23	0.208	0.212	0.194	0.223	0.211	0.246	0.2	0.2	0.993	1.21	1.26	0.919	1.05	0.143	0.148	0.139	0.129	0.0909
RERF-LC-KJ	1.22	1.09	0.894	0.815	0.651	0.902	0.981	0.733	0.841	0.825	0.881	0.803	0.697	0.845	0.734	1.01	0.629	0.328	0.265	0.272
NCI-H2126	0.333	0.354	0.336	0.363	0.353	0.552	0.576	0.536	0.494	0.564	0.789	0.749	0.753	0.737	0.811	0.898	0.843	0.609	0.472	0.309
NCI-H2228	0.898	0.841	0.654	0.737	0.552	0.677	0.502	0.407	0.606	0.513	0.848	0.52	0.691	0.99	0.783	0.178	0.181	0.195	0.19	0.113
SK-LU-1	0.424	0.386	0.363	0.415	0.355	0.519	0.524	0.485	0.816	0.486	1.01	1.11	1.2	1.18	1.03	0.18	0.228	0.215	0.186	0.147
HARA	0.311	0.344	0.204	0.225	0.308	0.755	0.771	0.587	0.613	0.621	0.961	0.804	0.783	0.738	0.788	0.683	0.618	0.291	0.0565	0.0527
EPLC-272H	0.352	0.325	0.32	0.327	0.359	0.353	0.252	0.279	0.312	0.258	1.05	0.997	0.919	0.951	0.902	0.328	0.152	0.219	0.164	0.143
SK-MES-1	0.354	0.298	0.316	0.329	0.315	0.573	0.6	0.539	0.491	0.515	0.901	0.878	0.92	0.868	0.996	0.866	0.694	0.551	0.173	0.195
COR-L 105	0.442	0.427	0.384	0.379	0.414	0.453	0.424	0.467	0.439	0.466	0.984	1.03	0.927	1.02	0.966	0.494	0.553	0.283	0.201	0.236
